Data reported in PMC9600068, “New Approach Methods for Hazard Identification: A Case Study with Azole Fungicides Affecting Molecular Targets Associated with the Adverse Outcome Pathway for Cholestasis” (Cells, 2022).

Target: T1, bile salt export pump (BSEP) (Homo sapiens, UniProt O95342)
T1 construct: gene ABCB11
Assay: inhibition of taurocholate transport in membrane preparations from HEK293 cells overexpressing human BSEP
Format: biochemical

T1 sequence (O95342 whole entry): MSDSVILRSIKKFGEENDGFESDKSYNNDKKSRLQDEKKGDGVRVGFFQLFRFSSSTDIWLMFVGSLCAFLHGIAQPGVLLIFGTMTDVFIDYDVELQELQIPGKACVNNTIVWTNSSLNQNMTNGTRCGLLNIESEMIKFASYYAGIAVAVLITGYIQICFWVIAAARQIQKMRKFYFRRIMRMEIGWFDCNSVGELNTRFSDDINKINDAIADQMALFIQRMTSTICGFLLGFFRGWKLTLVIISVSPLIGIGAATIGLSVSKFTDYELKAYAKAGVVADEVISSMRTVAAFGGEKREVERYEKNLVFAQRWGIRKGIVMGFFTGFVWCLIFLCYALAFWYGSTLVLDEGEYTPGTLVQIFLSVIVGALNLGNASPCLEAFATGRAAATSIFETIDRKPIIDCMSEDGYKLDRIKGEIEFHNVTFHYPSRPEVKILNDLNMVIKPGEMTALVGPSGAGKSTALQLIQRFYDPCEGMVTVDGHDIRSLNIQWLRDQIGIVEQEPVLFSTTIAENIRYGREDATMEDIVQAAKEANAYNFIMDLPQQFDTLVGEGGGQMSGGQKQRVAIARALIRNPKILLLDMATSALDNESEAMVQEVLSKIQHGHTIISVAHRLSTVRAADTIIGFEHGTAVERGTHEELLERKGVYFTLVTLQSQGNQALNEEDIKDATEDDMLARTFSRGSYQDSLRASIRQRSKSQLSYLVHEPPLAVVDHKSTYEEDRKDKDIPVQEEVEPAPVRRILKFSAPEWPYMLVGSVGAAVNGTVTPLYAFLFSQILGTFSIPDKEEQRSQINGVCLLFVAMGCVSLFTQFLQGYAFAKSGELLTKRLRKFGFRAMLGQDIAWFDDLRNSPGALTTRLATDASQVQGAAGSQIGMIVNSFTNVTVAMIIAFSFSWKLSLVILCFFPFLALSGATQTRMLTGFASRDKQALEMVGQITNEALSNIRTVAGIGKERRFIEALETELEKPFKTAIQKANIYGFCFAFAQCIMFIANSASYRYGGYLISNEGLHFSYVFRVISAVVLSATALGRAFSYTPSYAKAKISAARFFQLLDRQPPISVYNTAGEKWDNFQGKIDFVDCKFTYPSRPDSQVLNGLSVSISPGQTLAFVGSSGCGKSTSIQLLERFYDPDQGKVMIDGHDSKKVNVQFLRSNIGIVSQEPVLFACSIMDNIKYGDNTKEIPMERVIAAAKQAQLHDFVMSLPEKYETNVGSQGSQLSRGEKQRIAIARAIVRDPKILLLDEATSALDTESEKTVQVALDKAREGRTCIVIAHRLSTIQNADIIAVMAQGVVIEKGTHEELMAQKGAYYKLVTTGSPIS

SMILES | IC50 [µM]
CCCC1COC(Cn2cncn2)(c2ccc(Cl)cc2Cl)O1 (centres unmarked) [Pi, propiconazole] | 78.6
CC(C)(C)C(O)(CCc1ccc(Cl)cc1)Cn1cncn1 (centres unmarked) [Te, tebuconazole] | 38
